Reference: patent publication US20100273787A1, “KYNURENINE-AMINOTRANSFERASE INHIBITORS” (priority 2007, published 2010)
pIC50: −log10 of the molar value.

Key:
Kynureninase = target: T1, Kynureninase (Rattus norvegicus, UniProt P70712); assay: Kynureninase activity in rat liver homogenate; format: biochemical
T1 construct: determined in rat liver homogenate; from tissue; host or cells: rat liver homogenate
T1 sequence (P70712 1-464): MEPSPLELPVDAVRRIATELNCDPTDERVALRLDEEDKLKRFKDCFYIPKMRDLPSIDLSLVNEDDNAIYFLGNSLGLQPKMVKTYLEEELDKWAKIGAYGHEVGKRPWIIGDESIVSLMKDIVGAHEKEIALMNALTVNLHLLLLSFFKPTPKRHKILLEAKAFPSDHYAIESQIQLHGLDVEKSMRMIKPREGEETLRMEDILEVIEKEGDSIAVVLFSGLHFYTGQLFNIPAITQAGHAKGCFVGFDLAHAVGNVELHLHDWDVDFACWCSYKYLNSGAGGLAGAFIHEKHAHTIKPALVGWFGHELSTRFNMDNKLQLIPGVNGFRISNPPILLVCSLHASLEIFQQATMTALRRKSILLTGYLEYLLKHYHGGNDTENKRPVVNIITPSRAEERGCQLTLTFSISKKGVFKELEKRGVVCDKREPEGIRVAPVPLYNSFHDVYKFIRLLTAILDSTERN
Protocol: (§1) Kynurenine 3-hydroxylase and kynureninase activities were determined in rat liver homogenate according to established procedures (see Anal. Biochem., 205:257-62, 1992 and Neuroscience., 61:237-43, 1994 for methodology).

[1] = tested on: extracellular kynurenic acid (KYNA) and dopamine (DA) levels in prefrontal cortex; assay: In vivo reverse dialysis / microdialysis in rat prefrontal cortex; settings: 1 mM into prefrontal cortex for 2 hours by reverse dialysis, FIG. 2
Protocol: Microdialysis was performed in the prefrontal cortex of unanesthetized male rats (200-220 g) according to established procedures (see Eur. J. Neurosci., 4:1264-70, 1992 for methodology).
Compound (A) was also tested in the rat brain in vivo. Briefly, a concentration of 1 mM Compound (A) was introduced into the prefrontal cortex for 2 hours by reverse dialysis. A detailed description of this method can be found in J Neurosci Res 85(4):845-54, 2007 (Ceresoli-Borroni G, Guidetti P, Amori L, Pellicciari R, Schwarcz R).

Kynurenine 3-hydroxylase = target: T2, Kynurenine 3-hydroxylase (Rattus norvegicus, UniProt O88867); assay: Kynurenine 3-hydroxylase activity in rat liver homogenate; format: biochemical
T2 construct: determined in rat liver homogenate; from tissue; host or cells: rat liver homogenate
T2 sequence (O88867 whole entry): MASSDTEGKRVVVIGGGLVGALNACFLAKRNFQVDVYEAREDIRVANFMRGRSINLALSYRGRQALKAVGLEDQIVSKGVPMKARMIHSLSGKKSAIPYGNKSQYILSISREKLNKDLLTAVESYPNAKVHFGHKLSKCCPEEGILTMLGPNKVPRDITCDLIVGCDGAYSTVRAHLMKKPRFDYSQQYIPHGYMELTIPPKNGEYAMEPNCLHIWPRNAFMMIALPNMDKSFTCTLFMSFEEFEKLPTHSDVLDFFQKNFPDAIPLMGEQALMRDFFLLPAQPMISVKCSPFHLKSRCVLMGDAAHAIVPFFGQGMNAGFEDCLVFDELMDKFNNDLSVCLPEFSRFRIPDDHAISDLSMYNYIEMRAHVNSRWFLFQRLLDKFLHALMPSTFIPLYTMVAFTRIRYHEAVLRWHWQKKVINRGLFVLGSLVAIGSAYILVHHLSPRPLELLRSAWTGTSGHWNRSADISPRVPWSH
Protocol: as §1

[2] = target: T3, KAT II (partially purified rat liver enzyme) (Rattus norvegicus, UniProt Q64602); assay: KAT II activity, partially purified rat liver enzyme ([3H]-kynurenine to [3H]-KYNA); format: biochemical
T3 construct: partially purified rat liver enzyme; from tissue; host or cells: rat liver
T3 sequence (Q64602 30-425): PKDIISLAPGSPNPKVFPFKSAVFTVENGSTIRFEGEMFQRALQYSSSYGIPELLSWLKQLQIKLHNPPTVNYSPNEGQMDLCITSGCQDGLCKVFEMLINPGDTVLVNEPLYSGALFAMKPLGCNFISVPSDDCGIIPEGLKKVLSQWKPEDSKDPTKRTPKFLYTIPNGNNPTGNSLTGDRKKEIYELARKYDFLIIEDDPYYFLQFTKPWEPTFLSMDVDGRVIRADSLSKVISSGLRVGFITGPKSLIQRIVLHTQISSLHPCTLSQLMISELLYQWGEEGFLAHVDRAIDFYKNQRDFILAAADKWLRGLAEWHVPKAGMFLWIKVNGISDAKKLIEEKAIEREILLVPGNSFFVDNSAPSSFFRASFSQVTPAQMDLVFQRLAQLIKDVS
Protocol: (§2) For the measurement of KAT II activity, 100 μl of partially purified rat liver enzyme were incubated (2 hrs, 37° C.) with 100 μl of 150 mM Tris-acetate (pH 7.0), 2 μM (2.5 nCi) [^3H]-kynurenine, 1 mM pyruvate and 80 μM pyridoxal-5′-phosphate. Blanks were obtained using denatured protein preparations. The reaction was terminated by the addition of […] of 30% (w/v) trichloroacetic acid. 1 ml of 0.1 M HCl was added, and the denatured protein was removed by centrifugation. 1 ml of the supernatant was applied to a Dowex 50 W H^+cation exchange column, which was then washed with 1 ml of 0.1 M HCl, followed by 1 ml of ultrapure water. [^3H]-KYNA was subsequently eluted with 2×1 ml of ultrapure water, and radioactivity was quantified by liquid scintillation spectrometry. Human recombinant KAT II protein was also used to measure KAT II activity as described above.
(§3) Test compounds were added in 20 μl aliquots at the beginning of the incubation period to examine interference with enzyme activity.

[3] = tested on: KYNA production in rat brain tissue slices; assay: De novo production of KYNA in rat brain tissue slices; format: cell-based; settings: 6 hr at 37 degrees, FIG. 1
Protocol: The ability of Compound (A) to inhibit the de novo production of KYNA in rat brain tissue slices was also tested. A 2 μM concentration of Compound (A) was assayed as described by Gramsbergen J B, Hodgkins P S, Rassoulpour A, Turski W A, Guidetti P, Schwarcz R., (J. Neurochem., 69:290, 1997). Briefly, an aliquot of the original tissue homogenate was further diluted (1:5, v/v) in a buffer containing 5 mM Tris acetate (pH 8.0), 50 μM pyridoxal-5′-phosphate and 10 mM 2-mercapto-ethanol, and dialyzed overnight at 4 degrees. The reaction mixture containing 150 mM Tris-acetate buffer (pH 7.0), 2 μM L-kynurenine, 1 mM pyruvate, 80 μM pyridoxal-5′-phosphate and 80 μL dialysate in a total volume of […] was incubated w/wo Compound (A) for 6 hr at 37 degrees. The reaction was terminated by adding […] of 50% (w/v) trichloracetic acid and KYNA levels were measured using reverse-phase HPLC with fluorescence detection (excitation, 344 nm; emission, 398 nm).

[4] = target: Human recombinant KAT II protein (Homo sapiens, UniProt Q8N5Z0); assay: KAT II activity, human recombinant protein ([3H]-kynurenine to [3H]-KYNA); format: biochemical
Sequence of Human recombinant KAT II protein (Q8N5Z0 30-425): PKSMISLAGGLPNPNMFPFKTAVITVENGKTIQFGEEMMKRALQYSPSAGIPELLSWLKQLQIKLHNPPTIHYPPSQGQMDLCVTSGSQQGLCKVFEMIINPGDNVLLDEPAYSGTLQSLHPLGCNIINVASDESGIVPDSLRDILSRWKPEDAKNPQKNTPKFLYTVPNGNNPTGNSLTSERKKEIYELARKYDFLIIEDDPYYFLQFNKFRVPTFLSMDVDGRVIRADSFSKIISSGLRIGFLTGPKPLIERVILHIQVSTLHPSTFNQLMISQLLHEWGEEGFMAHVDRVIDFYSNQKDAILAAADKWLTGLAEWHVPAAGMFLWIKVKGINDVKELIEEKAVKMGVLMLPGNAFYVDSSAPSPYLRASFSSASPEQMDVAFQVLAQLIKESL
Protocol: as §2, §3

Structure (SMILES): C[C@H]1COc2c(N3CCN(N)CC3)c(F)cc3c(=O)c(C(=O)O)cn1c23.O=C(O)C(F)(F)F [Compound (A), (S)-(−)-9-(4-Aminopiperazin-1-yl)-8-fluoro-3-methyl-6-oxo-2,3-dihydro-6H-1-oxa-3a-aza-phenalene-5-carboxylic acid trifluoroacetate]
- pIC50 (Kynureninase): < 2.70
- increase of extracellular dopamine (DA) levels [1]: > 2.5 fold
- reduction of extracellular kynurenic acid (KYNA) levels [1]: ~40%
- pIC50 (Kynurenine 3-hydroxylase): < 3.00
- pIC50 [2]: 5.70
- inhibition of de novo production of KYNA from L-kynurenine [3]: dose-dependently inhibit
- pIC50 ([4]; human recombinant protein): 6.70
- times more active against human KAT II than against rat KAT II ([4]; human vs rat KAT II): 10 times
- times more active than UPF 874 as a KAT II inhibitor in humans ([4]; relative to UPF 874): 3000 times
